Assay results: publication PMC2267855, “Site-directed mutagenesis of Arginine282 suggests how protons and peptides are co-transported by rabbit PepT1” (The International Journal of Biochemistry & Cell Biology, 2008)
Changes are numbered by the printed parent chain. Where a SMILES comes first, the peptide text is derived from it.

Assays:
R282Q-PepT1 = target: T1, R282Q-PepT1 (Oryctolagus cuniculus, UniProt P36836, R282Q); experiment: Inhibition of [3H]-D-Phe-L-Gln uptake into Xenopus oocytes expressing R282Q-PepT1 (competition, Ki); format: cell-based, rabbit; conditions: pHout 5.5, 0.4 μM [3H]-D-Phe-L-Gln
T1 construct: expressed in transfected cells; host or cells: Xenopus laevis oocytes injected with cRNA
T1 sequence (P36836 1-707 R282Q): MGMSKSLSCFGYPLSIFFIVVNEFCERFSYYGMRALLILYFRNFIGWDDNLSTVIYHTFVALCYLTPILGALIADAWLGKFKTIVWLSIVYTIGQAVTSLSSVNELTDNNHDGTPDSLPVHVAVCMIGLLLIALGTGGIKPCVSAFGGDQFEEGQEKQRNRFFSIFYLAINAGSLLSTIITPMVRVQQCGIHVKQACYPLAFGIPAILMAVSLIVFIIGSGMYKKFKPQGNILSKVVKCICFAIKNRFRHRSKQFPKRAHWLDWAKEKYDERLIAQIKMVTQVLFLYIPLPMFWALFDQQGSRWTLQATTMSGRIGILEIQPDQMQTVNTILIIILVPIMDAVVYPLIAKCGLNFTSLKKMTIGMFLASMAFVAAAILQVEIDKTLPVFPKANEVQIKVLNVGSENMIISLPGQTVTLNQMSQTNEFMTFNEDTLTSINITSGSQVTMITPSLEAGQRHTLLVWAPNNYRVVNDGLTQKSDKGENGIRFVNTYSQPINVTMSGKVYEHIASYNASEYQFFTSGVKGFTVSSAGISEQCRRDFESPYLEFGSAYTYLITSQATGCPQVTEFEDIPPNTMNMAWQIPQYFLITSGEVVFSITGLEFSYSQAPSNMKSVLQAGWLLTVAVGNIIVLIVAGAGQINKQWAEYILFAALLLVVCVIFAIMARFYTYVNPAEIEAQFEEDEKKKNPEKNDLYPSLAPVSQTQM
Experimental: (§1) Zero-trans uptake of [^3H]-D-Phe-L-Gln (17.4 Ci/mmole, custom synthesised, Cambridge Research Biochemicals, Stockton-on-Tees, UK) was performed as previously described ([Meredith, 2004]). Briefly, 5 oocytes were incubated in 100 μl of uptake medium (95 mM NaCl, 2 mM KCl, 1 mM CaCl2, 0.42 mM MgCl2, 10 mM Tris/Hepes pH 7.4 or Tris/Mes pH 5.5) with tracer (0.4 μM) [^3H]-D-Phe-L-Gln. After incubation, the oocytes were washed sequentially five times in 1 ml of ice-cold 120 mM NaCl solution, lysed individually with 100 μl 2% (w/v) SDS and liquid scintillation counted. As a control non-injected oocytes were also incubated in uptake medium with [^3H]-D-Phe-L-Gln as above.
The affinity of wild-type and mutant PepT1 were assessed by competition studies with 0.4 μM [^3H]-D-Phe-L-Gln and Gly-L-Gln present in the uptake medium in concentrations from 0 to 2 mM using the protocol above, and the Ki calculated using the method of [Deves and Boyd (1989)].

wild-type PepT1 = target: T2, wild-type PepT1 (Oryctolagus cuniculus, UniProt P36836); experiment: Diethylpyrocarbonate inhibition of PepT1-mediated dipeptide uptake and protection by substrates; format: cell-based, rabbit; conditions: 5 mM present during 1 mM DEPC incubation (15 min), uptake measured over 1 h
T2 construct: expressed in transfected cells; host or cells: Xenopus laevis oocytes injected with cRNA
T2 sequence (P36836 1-707): T1 sequence (P36836 1-707 R282Q) with Q282R
Experimental: as §1
Diethylpyrocarbonate (DEPC) inhibition of PepT1 was performed using a similar protocol to that of [Terada, Saito, and Inui (1998)]. Briefly, PepT1 oocytes were preincubated with 1 mM DEPC for 15 min at pHout 5.5 in the absence or presence of the PepT1 substrates Gly-L-Gln, N-Acetyl-Phe ([Meredith et al., 2000]), and L-Ala-Tyramine (custom synthesised) and the non-substrate Tyr (all 5 mM). The oocytes were then washed in uptake medium before uptake assays were performed as detailed above.

Ki (R282Q-PepT1): 460 ± 220 µM
protection of PepT1 from DEPC inhibition (wild-type PepT1): largely prevented
SMILES: NCC(=O)N[C@@H](CCC(N)=O)C(=O)O [Gly-L-Gln] (H-Gly-Gln-OH)
